Data set [1] is described as follows: In vivo pharmacokinetics and brain targeting in rats, LC-MS/MS of brain homogenate and plasma. To be noted: rat, RM in brain, intravenous, 0.05 mg/kg/day. The procedure:
In order to evaluate the in vivo performance of the selected MST 2, an in vivo pharmacokinetics study was performed to measure the bioavailability and brain-targeting ability of the selected system after intranasal administration into rats. The study protocol was previously approved by the research ethics committee for the experimental and clinical studies at the Faculty of Pharmacy Cairo University with approval code (PI 2680). Briefly, forty-eight rats were divided into two groups (n = 24), and each group was divided into eight subgroups (n = 3). The average weight of the rats was 180 gm, and they were subjected to 12-h cycles of light/darkness. They were kept in cages with free access to food and water. The relative humidity was maintained in range 40–60%, and the temperature ranged from 20 to 25 °C during the experiment.
The first group was administered the optimized MST 2 equivalent to 0.05 mg/kg/day of RM [44] intranasally (IN) using a polyethylene tube which was attached to Hamilton syringe, whereas the second group was administered the same dose of an intravenous (IV) RM aqueous solution through the tail vein. Blood samples were collected from the rats at specified time intervals (0.25, 0.5, 1, 1.5, 2, 4, 8, and 12 h) via the puncture of lateral vesicular vein, centrifuged at 4000 rpm for 15 min, and separated to obtain the plasma that was then frozen at –80 °C until further investigations. Additionally, six rats (three of each subgroup) were anaesthetized and sacrificed to separate the brain tissues at 0.5, 1, 2, 4, and 8 h. The brain tissues were washed twice with normal saline and then weighed. An equal weight of normal saline was added to each brain sample, which was then homogenized (Heidolph DIAX 900, Heidolph Instruments, Schwabach, Germany) and kept frozen at – 80 °C until analysis. RM levels in plasma samples and brain homogenates were measured by a validated liquid chromatography-mass spectrometry (LC–MS/MS) method.
Calibration curves of RM in plasma and brain homogenate were constructed using clonazepam as internal standard (IS). Briefly, specific volumes of RM stock solution were mixed with one hundred microliter of clonazepam stock solution (100 ng/mL) and then spiked into 0.5 mL plasma or brain homogenate to obtain the following concentrations: 0.1, 1, 10, 20, 100, and 1000 ng/mL. For RM extraction from the samples, 0.5 mL of plasma samples or brain homogenates was mixed with 100 µL of clonazepam solution as IS and 4 mL of ethyl acetate to precipitate the proteins followed by vortexing (Stuart SA8, BiBBY Sterlin Ltd., UK) for 5 min and centrifugation for 10 min at 3000 rpm. The supernatant was transferred to a new tube to evaporate the organic solvent under vacuum using a vacuum concentrator (Eppendorf 5301, Hamburg, Germany). The obtained dry residue was reconstituted in 0.5 mL of the mobile phase (acetonitrile: 0.1% formic acid solution in water at a ratio (80:20 v/v)) after then, 9 µL of the obtained solution was injected into (LC–MS/MS) for analysis.
The analysis of RM in plasma samples and brain homogenates was done by LC–MS/MS (Shimadzu CBM20A, Japan) fitted with mass spectrometer AB Sciex 4000 (Sciex Instruments, USA) and auto-sampler (Shimadzu SIL20A, Japan). The mass spectrometer was equipped with turbo ion spray having a positive polarity with temperature set at 500 °C. The samples were analyzed by injecting aliquots of 9 µL, and the mobile phase flow rate was adjusted at 0.8 mL/min. The transition was from 172.036 to 117.000 m/z for RM and from 316.024 to 270 m/z in case of clonazepam. The analysis of the obtained results was done using Analyst software (version 1.6.3, Sciex Instruments, Framingham, USA).
Non-compartmental pharmacokinetic model was applied to analyze RM plasma and brain levels using Kinetica software (version 2000, Arlington, USA). […]

Data set [2] is described as follows: In vitro release of RM, modified Franz diffusion cells with dialysis membrane, simulated nasal fluid. In kind it is physicochemical. To be noted: simulated nasal fluid pH 6.5, 37 °C, 50 rpm. The procedure:
The in vitro release of RM from the optimized systems was investigated using modified Franz diffusion cells (Franz diffusion cell with dialysis membrane). In a few words, an exact volume of each optimized system was placed in the donor cell, and the dialysis process was performed against 50 mL of simulated nasal fluid (SNF; CaCl2.2H2O 0.32 mg/mL, NaCl 7.45 mg/mL, KCl 1.29 mg/mL, pH 6.5) maintained at 37 °C while stirring at 50 rpm. Three milliliter sample was withdrawn at each time interval (0.25, 0.5, 1, 1.5, 2, 3, 4, 6, 8, 10 and 12 h) and replaced with equal volumes of drug free SNF [39]. The amount of RM in each sample was measured spectrophotometrically at λmax 265 nm. The in vitro release profiles of the two optimized systems were compared to RM aqueous solution profile. Furthermore, the mean dissolution time (MDT) was calculated for both systems following Eq. (2):2 MDT=∑j=1ntj∗ΔMj/∑j=1nΔMj where j is the sample number, tj* is the midpoint time between t and tj-1 that can be calculated by (t + tj-1/2), n is the number of release samples, and ∆Mj is the additional amount released between t and tj-1. The higher the MDT value, the slower the drug release rate.

The conditions of data set [3]: after oral administration; cited from earlier work.

Structures can show the parent of a compound that is named as a salt. Where two headings read alike, the source gives them in different places.

This is an account of results in paper PMC9981512, “Thin film hydration versus modified spraying technique to fabricate intranasal spanlastic nanovesicles for rasagiline mesylate brain delivery: Characterization, statistical optimization, and in vivo pharmacokinetic evaluation” (Drug Delivery and Translational Research, 2022).

One may read the AUC(0-inf) as total exposure, with the tail of the curve extrapolated. In general, Cmax refers to the highest concentration seen after dosing. For orientation: Tmax means the time from dosing to the highest level. Broadly, the MRT is a mean duration of stay, worked out from the concentration-time curve.

With `C#CCN[C@@H]1CCc2ccccc21` [RM, Rasagiline mesylate], in data set [1], the AUC(0-inf) stood at 28 ± 1.84 ng·h/mL, the peak level (Cmax) was 15.8 ± 0.34 ng/mL and the Tmax came to 0.5 h. Moreover, the k el in data set [1] (read-out: K (hr^−1) elimination rate constant (converted)) is 0.377 h⁻¹. Also, the mean residence time MRT in data set [1] (read-out: MRT (hr) mean residence time) amounted to 2.27 ± 0.71 h. Also, the half-life in data set [1] (read-out: T1/2 half (converted)) was 1.83 ± 0.24 h. In addition, in data set [2], the “mean dissolution time (MDT)” value is 0.333 ± 0.0991 h and the “time of complete release of RM” value is given as 4 h. Besides, in data set [3], the half-life was 1.5 to 3.5 h and the “time to reach maximum concentration in plasma” value was not above 1 h.
